In patent publication US20080039422A1, “Vitamin B12-Containing Compositions and Methods of Use” (Transition Therapeutics Inc., priority 2004, published 2008):

Tests used:
[1] = Stability of CN-Cbl solutions stored at room temperature (3 days, 2 weeks); format: physicochemical; details: for Conc of CN-Cbl: After 2 weeks at Room Temperature
Protocol: To determine the stability of the various solutions, the clarified stocks were aliquoted into fresh tubes and stored at room temperature, protected from light, for up to two weeks. Prior to measuring the concentrations of CN-Cbl on subsequent occasions, the tubes were centrifuged for ten minutes at rcf 16,100. The concentration of CN-Cbl was measured as described above by spectrophotometry.
In the experiments described above, the concentration of CN-Cbl was measured within an hour or two after the components of the solutions were initially combined. To determine the stability of the preparations, the concentrations of CN-Cbl were measured in individual excipients after three days and the concentrations of CN-Cbl in combined excipients were measured after two weeks. Tables 3A-3B are tables showing the concentrations of CN-Cbl (mg/ml) in various solutions after three days incubation at room temperature. Solutions containing 0-60% propylene glycol (Table 3A) and solutions containing 0-40% ethanol (Table 3B) were challenged with 50, 75, 100, and 125 mg/ml CN-Cbl. Table 4 is a table showing the concentrations of CN-Cbl in excipients containing ethanol and propylene glycol after two weeks incubation at room temperature. The solutions were challenged with either 50 or 75 mg/ml CN-Cbl and the excipients contained ethanol (10, 15, or 20%) and propylene glycol (20, 30, or 40%). […] Regardless of the diminution in concentration over time, however, it was hypothesized that the initial concentrations of CN-Cbl could be restored with an additional application of energy (e.g., mixing, heating, or both mixing and heating; see below).

[2] = Formulation of a buffer system; format: physicochemical; details: 0.025 M phosphate buffer system, pH 8
Protocol: It was also noted that changes in pH occurred during the solubility study. […] A suitable 0.025 M buffer system was developed containing 7.25 mg/ml disodium hydrogen phosphate dodecahydrate and 0.74 mg/ml sodium dihydrogen phosphate dihydrate.

[3] = reported, cited from earlier work

Conc of CN-Cbl ([1]; challenge 50 mg/mL, ethanol 10%, PG 20% (v/v)): 26680 µg/mL | Conc of CN-Cbl ([1]; challenge 50 mg/mL, ethanol 10%, PG 30% (v/v)): 39460 µg/mL | Conc of CN-Cbl ([1]; challenge 50 mg/mL, ethanol 10%, PG 40% (v/v)): 50650 µg/mL | Conc of CN-Cbl ([1]; challenge 50 mg/mL, ethanol 15%, PG 20% (v/v)): 48720 µg/mL | Conc of CN-Cbl ([1]; challenge 50 mg/mL, ethanol 15%, PG 30% (v/v)): 49780 µg/mL | Conc of CN-Cbl ([1]; challenge 50 mg/mL, ethanol 15%, PG 40% (v/v)): 49390 µg/mL | Conc of CN-Cbl ([1]; challenge 50 mg/mL, ethanol 20%, PG 20% (v/v)): 47080 µg/mL | Conc of CN-Cbl ([1]; challenge 50 mg/mL, ethanol 20%, PG 30% (v/v)): 49780 µg/mL | Conc of CN-Cbl ([1]; challenge 50 mg/mL, ethanol 20%, PG 40% (v/v)): 49870 µg/mL | Conc of CN-Cbl ([1]; challenge 75 mg/mL, ethanol 10%, PG 20% (v/v)): 26910 µg/mL | Conc of CN-Cbl ([1]; challenge 75 mg/mL, ethanol 10%, PG 30% (v/v)): 35210 µg/mL | Conc of CN-Cbl ([1]; challenge 75 mg/mL, ethanol 10%, PG 40% (v/v)): 55660 µg/mL | Conc of CN-Cbl ([1]; challenge 75 mg/mL, ethanol 15%, PG 20% (v/v)): 33280 µg/mL | Conc of CN-Cbl ([1]; challenge 75 mg/mL, ethanol 15%, PG 30% (v/v)): 43310 µg/mL | Conc of CN-Cbl ([1]; challenge 75 mg/mL, ethanol 15%, PG 40% (v/v)): 74280 µg/mL | Conc of CN-Cbl ([1]; challenge 75 mg/mL, ethanol 20%, PG 20% (v/v)): 38390 µg/mL | Conc of CN-Cbl ([1]; challenge 75 mg/mL, ethanol 20%, PG 30% (v/v)): 59620 µg/mL | Conc of CN-Cbl ([1]; challenge 75 mg/mL, ethanol 20%, PG 40% (v/v)): 75820 µg/mL | concentration of CN-Cbl ([1]; After 3 days at Room Temperature, challenge 50 mg/ml, PG 0% v/v): 13600 µg/mL | concentration of CN-Cbl ([1]; After 3 days at Room Temperature, challenge 50 mg/ml, PG 10% v/v): 19500 µg/mL | concentration of CN-Cbl ([1]; After 3 days at Room Temperature, challenge 50 mg/ml, PG 20% v/v): 25300 µg/mL | concentration of CN-Cbl ([1]; After 3 days at Room Temperature, challenge 50 mg/ml, PG 30% v/v): 31000 µg/mL | concentration of CN-Cbl ([1]; After 3 days at Room Temperature, challenge 50 mg/ml, PG 40% v/v): 50000 µg/mL | concentration of CN-Cbl ([1]; After 3 days at Room Temperature, challenge 50 mg/ml, PG 50% v/v): 49900 µg/mL | concentration of CN-Cbl ([1]; After 3 days at Room Temperature, challenge 50 mg/ml, PG 60% v/v): 51500 µg/mL | concentration of CN-Cbl ([1]; After 3 days at Room Temperature, challenge 75 mg/ml, PG 0% v/v): 15000 µg/mL | concentration of CN-Cbl ([1]; After 3 days at Room Temperature, challenge 75 mg/ml, PG 10% v/v): 20100 µg/mL | concentration of CN-Cbl ([1]; After 3 days at Room Temperature, challenge 75 mg/ml, PG 20% v/v): 25800 µg/mL | concentration of CN-Cbl ([1]; After 3 days at Room Temperature, challenge 75 mg/ml, PG 30% v/v): 30500 µg/mL | concentration of CN-Cbl ([1]; After 3 days at Room Temperature, challenge 75 mg/ml, PG 40% v/v): 40500 µg/mL | concentration of CN-Cbl ([1]; After 3 days at Room Temperature, challenge 75 mg/ml, PG 50% v/v): 67000 µg/mL | concentration of CN-Cbl ([1]; After 3 days at Room Temperature, challenge 75 mg/ml, PG 60% v/v): 75800 µg/mL | concentration of CN-Cbl ([1]; After 3 days at Room Temperature, challenge 100 mg/ml, PG 0% v/v): 14900 µg/mL | concentration of CN-Cbl ([1]; After 3 days at Room Temperature, challenge 100 mg/ml, PG 10% v/v): 19500 µg/mL | concentration of CN-Cbl ([1]; After 3 days at Room Temperature, challenge 100 mg/ml, PG 20% v/v): 25000 µg/mL | concentration of CN-Cbl ([1]; After 3 days at Room Temperature, challenge 100 mg/ml, PG 30% v/v): 28800 µg/mL | concentration of CN-Cbl ([1]; After 3 days at Room Temperature, challenge 100 mg/ml, PG 40% v/v): 37600 µg/mL | concentration of CN-Cbl ([1]; After 3 days at Room Temperature, challenge 100 mg/ml, PG 50% v/v): 55900 µg/mL | concentration of CN-Cbl ([1]; After 3 days at Room Temperature, challenge 100 mg/ml, PG 60% v/v): 97200 µg/mL | concentration of CN-Cbl ([1]; After 3 days at Room Temperature, challenge 125 mg/ml, PG 0% v/v): 14500 µg/mL | concentration of CN-Cbl ([1]; After 3 days at Room Temperature, challenge 125 mg/ml, PG 10% v/v): 20400 µg/mL | concentration of CN-Cbl ([1]; After 3 days at Room Temperature, challenge 125 mg/ml, PG 20% v/v): 23100 µg/mL | concentration of CN-Cbl ([1]; After 3 days at Room Temperature, challenge 125 mg/ml, PG 30% v/v): 28300 µg/mL | concentration of CN-Cbl ([1]; After 3 days at Room Temperature, challenge 125 mg/ml, PG 40% v/v): 38600 µg/mL | concentration of CN-Cbl ([1]; After 3 days at Room Temperature, challenge 125 mg/ml, PG 50% v/v): 46200 µg/mL | concentration of CN-Cbl ([1]; After 3 days at Room Temperature, challenge 125 mg/ml, PG 60% v/v): 78700 µg/mL | concentration of CN-Cbl ([1]; after three days at room temperature, challenge 50 mg/ml, EtOH 0% v/v): 13600 µg/mL | concentration of CN-Cbl ([1]; after three days at room temperature, challenge 50 mg/ml, EtOH 10% v/v): 20500 µg/mL | concentration of CN-Cbl ([1]; after three days at room temperature, challenge 50 mg/ml, EtOH 20% v/v): 26900 µg/mL | concentration of CN-Cbl ([1]; after three days at room temperature, challenge 50 mg/ml, EtOH 30% v/v): 40000 µg/mL | concentration of CN-Cbl ([1]; after three days at room temperature, challenge 50 mg/ml, EtOH 40% v/v): 47600 µg/mL | concentration of CN-Cbl ([1]; after three days at room temperature, challenge 75 mg/ml, EtOH 0% v/v): 15000 µg/mL | concentration of CN-Cbl ([1]; after three days at room temperature, challenge 75 mg/ml, EtOH 10% v/v): 23000 µg/mL | concentration of CN-Cbl ([1]; after three days at room temperature, challenge 75 mg/ml, EtOH 20% v/v): 26100 µg/mL | concentration of CN-Cbl ([1]; after three days at room temperature, challenge 75 mg/ml, EtOH 30% v/v): 43000 µg/mL | concentration of CN-Cbl ([1]; after three days at room temperature, challenge 75 mg/ml, EtOH 40% v/v): 53400 µg/mL | concentration of CN-Cbl ([1]; after three days at room temperature, challenge 100 mg/ml, EtOH 0% v/v): 14900 µg/mL | concentration of CN-Cbl ([1]; after three days at room temperature, challenge 100 mg/ml, EtOH 10% v/v): 24000 µg/mL | concentration of CN-Cbl ([1]; after three days at room temperature, challenge 100 mg/ml, EtOH 20% v/v): 27800 µg/mL | concentration of CN-Cbl ([1]; after three days at room temperature, challenge 100 mg/ml, EtOH 30% v/v): 34500 µg/mL | concentration of CN-Cbl ([1]; after three days at room temperature, challenge 100 mg/ml, EtOH 40% v/v): 46100 µg/mL | concentration of CN-Cbl ([1]; after three days at room temperature, challenge 125 mg/ml, EtOH 0% v/v): 14500 µg/mL | concentration of CN-Cbl ([1]; after three days at room temperature, challenge 125 mg/ml, EtOH 10% v/v): 21500 µg/mL | concentration of CN-Cbl ([1]; after three days at room temperature, challenge 125 mg/ml, EtOH 20% v/v): 28400 µg/mL | concentration of CN-Cbl ([1]; after three days at room temperature, challenge 125 mg/ml, EtOH 30% v/v): 37900 µg/mL | concentration of CN-Cbl ([1]; after three days at room temperature, challenge 125 mg/ml, EtOH 40% v/v): 50900 µg/mL | reduction of pH of the buffered solution on addition of CN-Cbl [2]: 0.1 pH unit
Substance: cyanocobalamin [CN-Cbl]
hygroscopicity ([3]; anhydrous form): very hygroscopic | solubility in water ([3]; 1:80 (Merck Index 1996)): ~12.5 mg/mL
